{"source": "ChEMBL document CHEMBL5385865", "about": "“Discovery and optimization of 2-(trifluoromethyl)benzimidazole derivatives as novel ferroptosis inducers in vitro and in vivo” (Eur J Med Chem, 2023)", "key": {"[1]": {"test": "Toxicity in BALB/c nude mouse xenografted with human HepG2 cells assessed as effect on serum LDH level at 15 to 30 mg/kg, ip administered every other day for 21 days", "assay_type": "organism-based", "details": "in vivo, 504 h, dose 15-30 mg/kg, time 21 day"}, "HT-1080 [2]": {"tested_on": "HT-1080", "test": "Induction of ferroptosis in human HT-1080 cells assessed as cell death at 5 uM incubated for 6 hrs in presence of ferric citrate by fluorescent microscopy", "assay_type": "functional, cell-based"}, "HepG2 [3]": {"tested_on": "HepG2", "test": "Inhibition of cell proliferation in human HepG2 cells xenografted in BALB/c nude mouse at 15 to 30 mg/kg, ip administered every other day for 21 days by Ki67 staining based IHC analysis", "assay_type": "functional, organism-based", "details": "dose 15-30 mg/kg, time 21.0 day"}, "786-0 [4]": {"tested_on": "786-0", "test": "Lethality in human 786-0 cells assessed as decrease in cell viability at 10 uM incubated for 48 hrs by MTT assay", "assay_type": "functional, cell-based"}, "HT-1080 [5]": {"tested_on": "HT-1080", "test": "Induction of ferroptosis in human HT-1080 cells assessed as cell death at 10 uM incubated for 24 hrs in presence of Z-VAD-FMK by MTT assay", "assay_type": "functional, cell-based"}, "HepG2 [6]": {"tested_on": "HepG2", "test": "Lethality in human HepG2 cells assessed as inhibition of cell viability incubated for 24 hrs by MTT assay", "assay_type": "functional, cell-based", "details": "HepG2, 24 h"}, "A-375 [7]": {"tested_on": "A-375", "test": "Lethality in human A-375 cells assessed as decrease in cell viability at 10 uM incubated for 48 hrs in presence of DFO by MTT assay", "assay_type": "functional, cell-based"}, "HT-1080 [8]": {"tested_on": "HT-1080", "test": "Induction of ferroptosis in human HT-1080 cells assessed as increase in cytosolic ROS accumulation at 5 uM incubated for 10 hrs in presence of Fer-1 by H2DCFDA probe based flow cytometry", "assay_type": "functional, cell-based"}, "MDA-MB-231 [9]": {"tested_on": "MDA-MB-231", "test": "Lethality in human MDA-MB-231 cells assessed as decrease in cell viability at 10 uM incubated for 48 hrs in presence of DFO by MTT assay", "assay_type": "functional, cell-based"}, "MDA-MB-231 [10]": {"tested_on": "MDA-MB-231", "test": "Lethality in human MDA-MB-231 cells assessed as inhibition of cell viability incubated for 24 hrs by MTT assay", "assay_type": "functional, cell-based", "details": "MDA-MB-231, 24 h"}, "[11]": {"test": "Toxicity in BALB/c nude mouse xenografted with human HepG2 cells assessed as histological change in heart at 15 to 30 mg/kg, ip administered every other day for 21 days by H and E staining based analysis", "assay_type": "organism-based", "details": "in vivo, 504 h, dose 15-30 mg/kg, time 21 day"}, "[12]": {"test": "Toxicity in BALB/c nude mouse xenografted with human HepG2 cells assessed as effect on serum UREA level at 15 to 30 mg/kg, ip administered every other day for 21 days", "assay_type": "organism-based", "details": "in vivo, 504 h, dose 15-30 mg/kg, time 21 day"}, "HT-1080 [13]": {"tested_on": "HT-1080", "test": "Induction of ferroptosis in human HT-1080 cells assessed as increase in mitochondrial membrane density at 5 uM incubated for 24 hrs by TEM analysis", "assay_type": "functional, cell-based"}, "A-375 [14]": {"tested_on": "A-375", "test": "Lethality in human A-375 cells assessed as inhibition of cell viability incubated for 24 hrs by MTT assay", "assay_type": "functional, cell-based", "details": "A-375, 24 h"}, "[15]": {"test": "Metabolic stability in human liver microsomes assessed as intrinsic clearance measured per mg protein at 1 uM in presence of NADPH by LC-MS analysis", "assay_type": "ADME, Microsome", "details": "read-out: CLH"}, "A-375 [16]": {"tested_on": "A-375", "test": "Lethality in human A-375 cells assessed as decrease in cell viability at 10 uM incubated for 48 hrs by MTT assay", "assay_type": "functional, cell-based"}, "HT-1080 [17]": {"tested_on": "HT-1080", "test": "Lethality in human HT-1080 cells assessed as inhibition of cell viability incubated for 24 hrs by MTT assay", "assay_type": "functional, cell-based", "details": "HT-1080, 24 h"}, "MDA-MB-231 [18]": {"tested_on": "MDA-MB-231", "test": "Lethality in human MDA-MB-231 cells assessed as decrease in cell viability at 10 uM incubated for 48 hrs by MTT assay", "assay_type": "functional, cell-based"}, "DU-145 [19]": {"tested_on": "DU-145", "test": "Lethality in human DU-145 cells assessed as inhibition of cell viability incubated for 24 hrs by MTT assay", "assay_type": "functional, cell-based", "details": "DU-145, 24 h"}, "[20]": {"test": "Toxicity in BALB/c nude mouse xenografted with human HepG2 cells assessed as histological change in spleen at 15 to 30 mg/kg, ip administered every other day for 21 days by H and E staining based analysis", "assay_type": "organism-based", "details": "in vivo, 504 h, dose 15-30 mg/kg, time 21 day"}, "HT-1080 [21]": {"tested_on": "HT-1080", "test": "Induction of ferroptosis in human HT-1080 cells overexpressing SLC7A11 assessed as increase in lipid peroxidation by BODIPY-C11 probe based confocal laser scanning microscopy", "assay_type": "functional, cell-based"}, "HT-1080 [22]": {"tested_on": "HT-1080", "test": "Induction of ferroptosis in human HT-1080 cells assessed as cell death at 10 uM incubated for 24 hrs in presence of Nec-1 by MTT assay", "assay_type": "functional, cell-based"}, "786-0 [23]": {"tested_on": "786-0", "test": "Lethality in human 786-0 cells assessed as decrease in cell viability at 10 uM incubated for 48 hrs in presence of Fer-1 by MTT assay", "assay_type": "functional, cell-based"}, "HepG2 [24]": {"tested_on": "HepG2", "test": "Induction of ferroptosis in human HepG2 cells xenografted in BALB/c nude mouse assessed as increase in 4-HNE level administered intraperitoneally every other day for 21 days", "assay_type": "functional", "details": "dose 15-30 mg/kg, route ip, time 21.0 day"}, "[25]": {"test": "Toxicity in BALB/c nude mouse xenografted with human HepG2 cells assessed as effect on serum CK level at 15 to 30 mg/kg, ip administered every other day for 21 days", "assay_type": "organism-based", "details": "in vivo, 504 h, dose 15-30 mg/kg, time 21 day"}, "HT-1080 [26]": {"tested_on": "HT-1080", "test": "Induction of ferroptosis in human HT-1080 cells assessed as cell death at 10 uM incubated for 24 hrs in presence of Fer-1 by MTT assay", "assay_type": "functional, cell-based"}, "[27]": {"test": "Metabolic stability in […] rat microsomes assessed as half life at 1 uM in presence of NADPH by LC-MS analysis", "assay_type": "ADME, Liver, Microsome"}, "[28]": {"test": "Toxicity in BALB/c nude mouse xenografted with human HepG2 cells assessed as histological change in lung at 15 to 30 mg/kg, ip administered every other day for 21 days by H and E staining based analysis", "assay_type": "organism-based", "details": "in vivo, 504 h, dose 15-30 mg/kg, time 21 day"}, "HeLa": {"tested_on": "HeLa", "test": "Lethality in human HeLa cells assessed as decrease in cell viability at 10 uM incubated for 48 hrs in presence of Fer-1 by MTT assay", "assay_type": "functional, cell-based"}, "[29]": {"test": "Toxicity in BALB/c nude mouse xenografted with human HepG2 cells assessed as body weight loss at 15 to 30 mg/kg, ip administered every other day for 21 days", "assay_type": "organism-based", "details": "in vivo, 504 h, dose 15-30 mg/kg, time 21 day"}, "HT-1080 [30]": {"tested_on": "HT-1080", "test": "Induction of ferroptosis in human HT-1080 cells assessed as shrinkage of mitochondria at 5 uM incubated for 24 hrs by TEM analysis", "assay_type": "functional, cell-based"}, "HT-1080 [31]": {"tested_on": "HT-1080", "test": "Induction of ferroptosis in human HT-1080 cells assessed as cell death at 5 uM incubated for 24 hrs in presence of beta-mercaptoethanol by MTT assay", "assay_type": "functional, cell-based"}, "DU-145 [32]": {"tested_on": "DU-145", "test": "Lethality in human DU-145 cells assessed as decrease in cell viability at 10 uM incubated for 48 hrs by MTT assay", "assay_type": "functional, cell-based"}, "786-0 [33]": {"tested_on": "786-0", "test": "Lethality in human 786-0 cells assessed as decrease in cell viability at 10 uM incubated for 48 hrs in presence of DFO by MTT assay", "assay_type": "functional, cell-based"}, "HT-1080 [34]": {"tested_on": "HT-1080", "test": "Induction of ferroptosis in human HT-1080 cells assessed as cell death incubated for 24 hrs by morphology based microscopy", "assay_type": "functional", "details": "dose 0.5-5 µM"}, "[35]": {"test": "Metabolic stability in human liver microsomes assessed as half life at 1 uM in presence of NADPH by LC-MS analysis", "assay_type": "ADME, Microsome"}, "HT-1080 [36]": {"tested_on": "HT-1080", "test": "Induction of ferroptosis in human HT-1080 cells assessed as cell death at 10 uM incubated for 24 hrs in presence of DFO by MTT assay", "assay_type": "functional, cell-based"}}, "note": "Active and inactive are the calls of the source. No cut-off for these calls is given here."}
{"smiles": "CN(C)S(=O)(=O)c1ccc(N2CCC(Cn3c(C(F)(F)F)nc4ccccc43)CC2)cc1", "values": [{"measurement": "Activity", "setting": "[1]", "result": "Non-Toxic"}, {"measurement": "Activity", "setting": "HT-1080 [2]", "result": "Active"}, {"measurement": "inhibition", "setting": "HepG2 [3]", "result": "Active"}, {"measurement": "Activity", "setting": "786-0 [4]", "result": "Active"}, {"measurement": "Activity", "setting": "HT-1080 [5]", "result": "Active"}, {"measurement": "IC50", "setting": "HepG2 [6]", "result": 1.33, "unit": "µM"}, {"measurement": "Activity", "setting": "A-375 [7]", "result": "inactive"}, {"measurement": "Activity", "setting": "HT-1080 [8]", "result": "inactive"}, {"measurement": "Activity", "setting": "MDA-MB-231 [9]", "result": "inactive"}, {"measurement": "IC50", "setting": "MDA-MB-231 [10]", "result": 4.34, "unit": "µM"}, {"measurement": "Activity", "setting": "[11]", "result": "Non-Toxic"}, {"measurement": "Activity", "setting": "[12]", "result": "Non-Toxic"}, {"measurement": "Activity", "setting": "HT-1080 [13]", "result": "Active"}, {"measurement": "IC50", "setting": "A-375 [14]", "result": 2.31, "unit": "µM"}, {"measurement": "microsomal CLint at 1 µM", "setting": "[15]", "result": 88.6, "unit": "µL/min/mg"}, {"measurement": "Activity", "setting": "A-375 [16]", "result": "Active"}, {"measurement": "IC50", "setting": "HT-1080 [17]", "result": 1.26, "unit": "µM"}, {"measurement": "Activity", "setting": "MDA-MB-231 [18]", "result": "Active"}, {"measurement": "IC50", "setting": "DU-145 [19]", "result": 1.64, "unit": "µM"}, {"measurement": "Activity", "setting": "[20]", "result": "Non-Toxic"}, {"measurement": "Activity", "setting": "HT-1080 [21]", "result": "inactive"}, {"measurement": "Activity", "setting": "HT-1080 [22]", "result": "Active"}, {"measurement": "Activity", "setting": "786-0 [23]", "result": "inactive"}, {"measurement": "Activity", "setting": "HepG2 [24]", "result": "Dose-Dependent Effect"}, {"measurement": "Activity", "setting": "[25]", "result": "Non-Toxic"}, {"measurement": "Activity", "setting": "HT-1080 [26]", "result": "inactive"}, {"measurement": "half-life at 1 µM", "setting": "[27]", "result": 10.4, "unit": "min"}, {"measurement": "Activity", "setting": "[28]", "result": "Non-Toxic"}, {"measurement": "Activity", "setting": "HeLa", "result": "inactive"}, {"measurement": "Activity", "setting": "[29]", "result": "Non-Toxic"}, {"measurement": "Activity", "setting": "HT-1080 [30]", "result": "Active"}, {"measurement": "Activity", "setting": "HT-1080 [31]", "result": "inactive"}, {"measurement": "Activity", "setting": "DU-145 [32]", "result": "Active"}, {"measurement": "Activity", "setting": "786-0 [33]", "result": "inactive"}, {"measurement": "Activity", "setting": "HT-1080 [34]", "result": "Dose-Dependent Effect"}, {"measurement": "half-life at 1 µM", "setting": "[35]", "result": 15.6, "unit": "min"}, {"measurement": "Activity", "setting": "HT-1080 [36]", "result": "inactive"}]}
